Source: patent publication US4745124A, “Orally effective anti-hypertensive agents” (priority 1983, dated 1988)
Structures can show the parent of a compound that is named as a salt.

What was measured:
[1] = tested on: pressor effects of angiotensin I; test: oral effectiveness: blood pressure response to angiotensin I in anesthetized rats; assay type: in vivo, rat
Description: Rats (210-290 g body weight) were fasted overnight and then anesthetized with intraperitoneal pentobarbital, 50-60 mg/kg. Tracheostomy was performed and the animals were ventilated mechanically. A cannula was inserted into a femoral vein for injection of angiotensin I or II, and a second cannula was inserted into a common carotid artery for direct measurement of arterial blood pressure. Heparin, 1,000 units, was injected via the femoral vein to prevent coagulation. Blood pressure was measured with a pressure transducer connected to a polygraph. The rats were injected with 80 ng of angiotensin I or angiotensin II in 20 μl of 0.9 g % NaCl; an amount of antiotensin I or II sufficient to raise mean arterial blood pressure by 27-40 mm Hg. After the responsiveness of a given rat to angiotensins I and II was established, compound (I), at 2 or 5 mg/kg (drug dissolved in 0.5 ml of H2 O plus 10 μl of 1N NaHCO3), was given via a stomach tube. At timed intervals, the effects of 80 ng of angiotensin I or angiotensin II on mean arterial blood pressure were tested.
Rats were prepared as described in Example 222. Compound (II) [N-benzoyl-L-phenylalanylthiopropanoyl)-L-proline] was given orally, via a stomach tube, at a dose of 12 mg/kg or 20 mg/kg. Compound (II) was dissolved in 0.5 ml of H2 O plus 10 μl of 1N NaHCO3. In all other respects, the experimental preparations were exactly as described in Example 222.
Rats (210-290 g body weight) were fasted overnight and then anesthetized with intraperitoneal pentobarbital, 50-60 mg/kg. Tracheostomy was performed and the animals were ventilated mechanically. A cannula was inserted into a femoral vein for injection of angiotensin I or II, and a second cannula was inserted into a common carotid artery for direct measurement of arterial blood pressure. Heparin, 1,000 units, was injected via the femoral vein to prevent coagulation. Blood pressure was measured with a pressure transducer connected to a polygraph. The rats were injected with 160 ng of angiotensin I or 80 ng of angiotensin II in 20 μl of 0.9 g % NaCl; an amount of angiotensin I or II sufficient to raise mean arterial blood pressure by 27-40 mm Hg. After the responsiveness of a given rat to angiotensins I and II was established, compound (B) at 10 mg (drug dissolved in 0.5 ml of H2 O plus 10 μl of 1N NaHCO3), was given via a stomach tube. At timed intervals, the effects of 160 ng of angiotensin I or 80 ng of angiotensin II on mean arterial blood pressure were tested. Results are shown below:
Rats (210-290 g body weight) were fasted overnight and then anesthetized with intraperitoneal pentobarbital, 50-60 mg/kg. Tracheostomy was performed and the animals were ventilated mechanically. A cannula was inserted into a femoral vein for injection of angiotensin I, and a second cannula was inserted into a common carotid artery for direct measurement of arterial blood pressure. Heparin, 1,000 units, was injected via the femoral vein to prevent coagulation. Blood pressure was measured with a pressure transducer connected to a polygraph. The rats were injected with 400 ng/kg of angiotensin I in 20 μl of 0.9 g % NaCl; an amount of angiotensin I sufficient to raise mean arterial blood pressure by 39 mm Hg. After the responsiveness of a given rat to angiotensin I was established, the named compound at 17 μmol/kg (drug dissolved in 0.15 ml of H2 O plus 10 μl of 1N NaHCO3), was given via a stomach tube. At timed intervals, the effects of 400 ng/kg of angiotensin I on mean arterial blood pressure were tested. Results are shown below:
Rats (190-290 g body weight) were fasted overnight and then anesthetized with intraperitoneal pentobarbital, 50-60 mg/kg. Tracheostomy was performed and the animals were ventilated mechanically. A cannula was inserted into a femoral vein for injection of angtiotensin I, and a second cannula was inserted into a common carotid artery for direct measurement of arterial blood pressure. […]

[2] = tested on: pressor effects of angiotensin I; test: intravenous effectiveness: blood pressure response to angiotensin I in anesthetized rats; assay type: in vivo, rat; conditions: for t1/2: recovery of one half of lost responsiveness to angiotensin I 400 ng/kg
Description: (§1) Anesthetized rats were prepared as described in Example 228. After the responsiveness of a given rat to angiotensin I was established, the named compound at 2 μmol/kg, in a volume of 15 μl of 0.01N sodium bicarbonate, was injected via a femoral vein. At timed intervals, the effects of angiotensin I, 400 ng/kg, on mean arterial blood pressure were tested. Results are shown below:
as §1, with “231.” for “228.”, “compound,” for “compound”
Anesthetized rats were prepared as described in Example 239. The animals were administered the named compound via a femoral vein in 15 μl of 0.01N sodium bicarbonate, after the control response to 400 ng/kg of angiotensin I was measured. […] The time required for recovery of one half of the lost responsiveness to angiotensin I, following injection of the named compound, was designated t1/2. […] Results are shown for two dose levels:
Anesthetized rats were prepared as described in Example 242. The named compound was administered intravenously via a femoral vein, at the stated dose, in 15 μl of 0.01N sodium bicarbonate. The response to intravenous administration was a rapid decrease in responsiveness to Angtiotensin I, 400 ng/kg, followed by a gradual recovery to the pretreatment level of responsiveness. The time required for recovery of one half the lost responsiveness to angiotensin I, following injection of the named compound, is designated t1/2. […] Results are shown for the three dose levels:
The intravenous effectiveness of the named compound was examined by following the procedure described in Example 244 except that 1 μmole/kg of the drug was given intravenously. The results are shown below:
The intravenous effectiveness of the named compound was examined by following the procedure described in Example 246 except that 1 μmole/Kg of the drug was given intravenously.

C[C@H](CSC(=O)[C@@H](N)CCC(=O)O)C(=O)N1CCC[C@H]1C(=O)O [N-alpha-[3-(L-alpha-glutamylthio)-2-D-methyl-propanoyl]-L-proline]
Blood Pressure Response to 400 ng/kg of Angiotensin I ([1]; oral 10 μmol/kg, 9 min, Ex. 244): 66 % of Control
Blood Pressure Response to 400 ng/kg of Angiotensin I ([1]; oral 10 μmol/kg, 18 min, Ex. 244): 39 % of Control
Blood Pressure Response to 400 ng/kg of Angiotensin I ([1]; oral 10 μmol/kg, 26 min, Ex. 244): 39 % of Control
Blood Pressure Response to 400 ng/kg of Angiotensin I ([1]; oral 10 μmol/kg, 33 min, Ex. 244): 26 % of Control
Blood Pressure Response to 400 ng/kg of Angiotensin I ([1]; oral 10 μmol/kg, 39 min, Ex. 244): 18 % of Control
Blood Pressure Response to 400 ng/kg of Angiotensin I ([1]; oral 10 μmol/kg, 45 min, Ex. 244): 18 % of Control
Blood Pressure Response to 400 ng/kg of Angiotensin I ([1]; oral 10 μmol/kg, 53 min, Ex. 244): 13 % of Control
Blood Pressure Response to 400 ng/kg of Angiotensin I ([1]; oral 10 μmol/kg, 64 min, Ex. 244): 13 % of Control
Blood Pressure Response to 400 ng/kg of Angiotensin I ([1]; oral 10 μmol/kg, 77 min, Ex. 244): 26 % of Control
Blood Pressure Response to 400 ng/kg of Angiotensin I ([1]; oral 10 μmol/kg, 89 min, Ex. 244): 26 % of Control
Blood Pressure Response to 400 ng/kg of Angiotensin I ([1]; oral 10 μmol/kg, 111 min, Ex. 244): 24 % of Control
Blood Pressure Response to 400 ng/kg of Angiotensin I ([1]; oral 10 μmol/kg, 125 min, Ex. 244): 26 % of Control
Blood Pressure Response to 400 ng/kg of Angiotensin I ([2]; i.v. 1 μmole/kg, 0.5 min, Ex. 245): 13 % of Control
Blood Pressure Response to 400 ng/kg of Angiotensin I ([2]; i.v. 1 μmole/kg, 3 min, Ex. 245): 13 % of Control
Blood Pressure Response to 400 ng/kg of Angiotensin I ([2]; i.v. 1 μmole/kg, 7 min, Ex. 245): 13 % of Control
Blood Pressure Response to 400 ng/kg of Angiotensin I ([2]; i.v. 1 μmole/kg, 11 min, Ex. 245): 21 % of Control
Blood Pressure Response to 400 ng/kg of Angiotensin I ([2]; i.v. 1 μmole/kg, 22 min, Ex. 245): 21 % of Control
Blood Pressure Response to 400 ng/kg of Angiotensin I ([2]; i.v. 1 μmole/kg, 28 min, Ex. 245): 18 % of Control
Blood Pressure Response to 400 ng/kg of Angiotensin I ([2]; i.v. 1 μmole/kg, 37 min, Ex. 245): 29 % of Control
Blood Pressure Response to 400 ng/kg of Angiotensin I ([2]; i.v. 1 μmole/kg, 47 min, Ex. 245): 37 % of Control
Blood Pressure Response to 400 ng/kg of Angiotensin I ([2]; i.v. 1 μmole/kg, 56 min, Ex. 245): 39 % of Control
Blood Pressure Response to 400 ng/kg of Angiotensin I ([2]; i.v. 1 μmole/kg, 82 min, Ex. 245): 53 % of Control
Blood Pressure Response to 400 ng/kg of Angiotensin I ([2]; i.v. 1 μmole/kg, 92 min, Ex. 245): 71 % of Control

C[C@H](CSC(=O)[C@H](Cc1c[nH]c2ccccc12)NC(=O)c1ccccc1)C(=O)N1CCC[C@H]1C(=O)O [N-alpha-[3-(N-alpha-benzoyl-L-tryptophylthio)-2-D-methylpropanoyl]-1-proline]
Blood Pressure Response to 400 ng/kg of Angiotensin I ([1]; oral 20 μmol/kg, 3 min, Ex. 242): 92 % of Control
Blood Pressure Response to 400 ng/kg of Angiotensin I ([1]; oral 20 μmol/kg, 7 min, Ex. 242): 64 % of Control
Blood Pressure Response to 400 ng/kg of Angiotensin I ([1]; oral 20 μmol/kg, 21 min, Ex. 242): 32 % of Control
Blood Pressure Response to 400 ng/kg of Angiotensin I ([1]; oral 20 μmol/kg, 26 min, Ex. 242): 40 % of Control
Blood Pressure Response to 400 ng/kg of Angiotensin I ([1]; oral 20 μmol/kg, 32 min, Ex. 242): 40 % of Control
Blood Pressure Response to 400 ng/kg of Angiotensin I ([1]; oral 20 μmol/kg, 38 min, Ex. 242): 20 % of Control
Blood Pressure Response to 400 ng/kg of Angiotensin I ([1]; oral 20 μmol/kg, 50 min, Ex. 242): 8 % of Control
Blood Pressure Response to 400 ng/kg of Angiotensin I ([1]; oral 20 μmol/kg, 56 min, Ex. 242): 8 % of Control
Blood Pressure Response to 400 ng/kg of Angiotensin I ([1]; oral 20 μmol/kg, 70 min, Ex. 242): 8 % of Control
Blood Pressure Response to 400 ng/kg of Angiotensin I ([1]; oral 20 μmol/kg, 79 min, Ex. 242): 20 % of Control
Blood Pressure Response to 400 ng/kg of Angiotensin I ([1]; oral 20 μmol/kg, 87 min, Ex. 242): 12 % of Control
Blood Pressure Response to 400 ng/kg of Angiotensin I ([1]; oral 20 μmol/kg, 104 min, Ex. 242): 12 % of Control
Blood Pressure Response to 400 ng/kg of Angiotensin I ([1]; oral 20 μmol/kg, 114 min, Ex. 242): 20 % of Control
Blood Pressure Response to 400 ng/kg of Angiotensin I ([1]; oral 20 μmol/kg, 124 min, Ex. 242): 40 % of Control
Blood Pressure Response to 400 ng/kg of Angiotensin I ([1]; oral 20 μmol/kg, 136 min, Ex. 242): 40 % of Control
Blood Pressure Response to 400 ng/kg of Angiotensin I ([1]; oral 20 μmol/kg, 148 min, Ex. 242): 36 % of Control
Blood Pressure Response to 400 ng/kg of Angiotensin I ([1]; oral 20 μmol/kg, 173 min, Ex. 242): 48 % of Control
Blood Pressure Response to 400 ng/kg of Angiotensin I ([1]; oral 20 μmol/kg, 186 min, Ex. 242): 48 % of Control
Blood Pressure Response to 400 ng/kg of Angiotensin I ([1]; oral 20 μmol/kg, 199 min, Ex. 242): 68 % of Control
Blood Pressure Response to 400 ng/kg of Angiotensin I ([1]; oral 20 μmol/kg, 212 min, Ex. 242): 64 % of Control
Blood Pressure Response to 400 ng/kg of Angiotensin I ([1]; oral 20 μmol/kg, 226 min, Ex. 242): 64 % of Control
Blood Pressure Response to 400 ng/kg of Angiotensin I ([1]; oral 20 μmol/kg, 242 min, Ex. 242): 80 % of Control
Blood Pressure Response to 400 ng/kg of Angiotensin I ([1]; oral 20 μmol/kg, 260 min, Ex. 242): 80 % of Control
Blood Pressure Response to 400 ng/kg of Angiotensin I ([1]; oral 20 μmol/kg, 291 min, Ex. 242): 84 % of Control
t1/2 ([2]; i.v. 0.193 μmol/kg): 11 min
t1/2 ([2]; i.v. 0.58 μmol/kg): 11 min
t1/2 ([2]; i.v. 1.93 μmol/kg): 15 min

C[C@H](CSC(=O)C(Cc1ccccc1)NC(=O)c1ccccc1)C(=O)N1CCC[C@H]1C(=O)O (stereo partly drawn) [potassium salt of N-alpha[3-(N-alpha-benzoyl-D,L-phenylalanylthio)-2-D-methylpropanoyl]-L-proline]
Blood Pressure Response to 400 ng/kg of Angiotensin I ([2]; i.v. 1 μmole/Kg, 5 min, Ex. 247): 46 % of Control
Blood Pressure Response to 400 ng/kg of Angiotensin I ([2]; i.v. 1 μmole/Kg, 10 min, Ex. 247): 37 % of Control
Blood Pressure Response to 400 ng/kg of Angiotensin I ([2]; i.v. 1 μmole/Kg, 15 min, Ex. 247): 41 % of Control
Blood Pressure Response to 400 ng/kg of Angiotensin I ([2]; i.v. 1 μmole/Kg, 20 min, Ex. 247): 37 % of Control
Blood Pressure Response to 400 ng/kg of Angiotensin I ([2]; i.v. 1 μmole/Kg, 30 min, Ex. 247): 44 % of Control
Blood Pressure Response to 400 ng/kg of Angiotensin I ([2]; i.v. 1 μmole/Kg, 40 min, Ex. 247): 50 % of Control
Blood Pressure Response to 400 ng/kg of Angiotensin I ([2]; i.v. 1 μmole/Kg, 50 min, Ex. 247): 39 % of Control
Blood Pressure Response to 400 ng/kg of Angiotensin I ([2]; i.v. 1 μmole/Kg, 60 min, Ex. 247): 46 % of Control
Blood Pressure Response to 400 ng/kg of Angiotensin I ([2]; i.v. 1 μmole/Kg, 90 min, Ex. 247): 52 % of Control
Blood Pressure Response to 400 ng/kg of Angiotensin I ([2]; i.v. 1 μmole/Kg, 120 min, Ex. 247): 59 % of Control
